This passage reports IL-17 expression and IL-17 production results from patent US11427869B2, “T cell balance gene expression, compositions of matters and methods of use thereof” (THE BROAD INSTITUTE, INC., priority 2015, dated 2022).

This assay has as its system Th17 cells. In words: Flow cytometry and intracellular cytokine staining of T cells. Type of assay: cell-based, mouse. For orientation: Flow cytometry measures light scatter and fluorescence of single cells or particles in a stream.

Procedure: WT, CD5L−/− and Rorγt−/− Th17 cells were differentiated with TGF-1+IL-6 for 96h. […] Three independent experiments were performed. […] (FIG. 18E) Naïve WT T cells were activated without polarizing cytokines (Th0) and infected with retrovirus expressing Rorγt in the presence of control-RV or CD5L-RV with or without FF-MAS (5 uM) as a source of Rorγt ligand. Each dot represents an independent infection. (FIG. 18F) WT or CD5L−/− naïve cells were differentiated with TGF-β1+IL-6. At 48h, cells were replated in fresh media with either control or FF-MAS (5 uM) as a source of Rorγt ligand. Cells were harvested for FACS analysis 72h later.
T cell differentiation culture. Naïve CD4+CD44−CD62L+CD25− T cells or Effector memory CD4+CD44+CD62L− were sorted using BD FACSAria sorter and activated with plate-bound anti-CD3 and anti-CD28 antibodies (both at 2 μg/ml) in the presence of cytokines at a concentration of 2.5×10^5 cells/ml. For Th17 differentiation: 2 ng/ml of rhTGFβ1, 2 ng/ml of rhTGFβ3, 25 ng/ml rmIL-6, 20 ng/ml rmIL-18 (all from Miltenyi Biotec) and 20 ng/ml rmIL-23 (R & D systems) were used at various combinations as specified in figures. For Th1 differentiation, 20 ng/ml rmIL-12 (R & D systems); for Th2 differentiation 20 ng/ml rmIL-4 (Miltenyi Biotec); for iTreg differentiation, 2.5 ng/ml of rhTGFβ1 were used (Miltenyi Biotec). For differentiation experiments, cells were harvested at 48 hours. For restimulation experiments, cells were differentiated for 48 hours and resuspended in fresh media with no additional cytokines for 48-72 hours. Cells were re-stimulated with PMA/ionomycin for four hours before analysis for cytokines by intracellular cytokine staining. For experiments with exogenous fatty acid, fatty acids were purchased and resuspended first with serum-free media containing BSA prior being added to culture.
Flow cytometry and intracellular cytokine staining. Sorted naïve T cells were stimulated with phorbol 12-myristate 13-acetate (PMA) (50 ng/ml, Sigma-aldrich), ionomycin (1 μg/ml, Sigma-aldrich) and a protein transport inhibitor containing monensin (Golgistop) (BD Biosciences) for 4 h before detection by staining with antibodies.

Consider `CC(C)=CCC[C@@H](C)[C@H]1CC=C2C3=C(CC[C@@]21C)[C@@]1(C)CC[C@H](O)C(C)(C)[C@@H]1CC3` [Rorγt ligand, FF-MAS], for which the IL-17 expression result (Th0 cells with ectopic Rorγt expression and CD5L-RV, FF-MAS 5 uM) is listed as “partially rescued”. The IL-17 production result (non-pathogenic Th17 cells (TGF-β1+IL-6), ligand (FF-MAS 5 uM) added at 48h, FACS 72h later) is reported as “increased IL-17 production”.
